Target: (WT)7 αHL protein pore (Staphylococcus aureus, UniProt P09616)
Conditions: pH 7.5

(WT)7 αHL protein pore, sequence (P09616 27-319 limits assumed): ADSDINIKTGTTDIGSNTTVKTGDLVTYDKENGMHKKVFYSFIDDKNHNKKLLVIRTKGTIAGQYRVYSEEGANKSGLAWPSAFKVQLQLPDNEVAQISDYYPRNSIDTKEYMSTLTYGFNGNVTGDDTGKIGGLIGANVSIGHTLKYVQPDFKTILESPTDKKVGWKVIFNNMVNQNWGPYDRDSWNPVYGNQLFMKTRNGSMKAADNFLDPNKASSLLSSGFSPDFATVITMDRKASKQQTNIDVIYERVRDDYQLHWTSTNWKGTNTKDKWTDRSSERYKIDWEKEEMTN

Y-Y-Y-Y-Y-Y [Y6] was tested, and the dwell time was 1.2 ms.
